Tested on: T1, TanHcw
T1 construct: C-terminal His-tag, pET23a, E. coli BL21(DE3) pLysS; 39 kDa on gel
Test: gallic acid release, rhodanine chromogen at […] nm; Lineweaver-Burk
Assay type: biochemical, Herbaspirillum camelliae
Conditions: 0.1-2.0 mM substrate

Km (pH 6.0, 30 °C) [µM]	Compound	Km (pH 7.0, 40 °C) [µM]
–	O=C(O[C@@H]1Cc2c(O)cc(O)cc2O[C@@H]1c1cc(O)c(O)c(O)c1)c1cc(O)c(O)c(O)c1 [EGCG, (–)–epigallocatechin-3-gallate]	300 ± 10
–	O=C(O[C@@H]1Cc2c(O)cc(O)cc2O[C@@H]1c1ccc(O)c(O)c1)c1cc(O)c(O)c(O)c1 [ECG, (–)–epicatechin-3-gallate]	330 ± 10
820 ± 20	COC(=O)c1cc(O)c(O)c(O)c1 [MG, Methyl gallate]	–
